Laboratory results as given in patent publication US7427627B2, “N-(4-(4-methylthiazol-5-yl) pyrimidin-2-yl)-N-phenylamines as antiproliferative compounds” (Cyclacel Limited, priority 2001, dated 2008).
Like-named read-outs stand apart in the source and are kept apart here.

Legend:
A549 = assay: 72-h MTT cytotoxicity assay, A549; type: cell-based, human; conditions: Table 1, 72 h
Experimental: In short: cells were seeded into 96-well plates according to doubling time and incubated overnight at 37° C. Test compounds were made up in DMSO and a 1/3 dilution series prepared in 100 μL cell media, added to cells (in triplicates) and incubated for 72 ho at 37° C. MTT was made up as a stock of 5 mg/mL in cell media and filter-sterilised. Media was removed from cells followed by a wash with 200 μL PBS. MTT solution was then added at 20 μL per well and incubated in the dark at 37° C. for 4 h. MTT solution was removed and cells again washed with 200 μL PBS. MTT dye was solubilised with 200 μL per well of DMSO with agitation.

HT29 = assay: 72-h MTT cytotoxicity assay, HT29; type: cell-based; conditions: Homo sapiens, HT-29, read-out: 72-h MTT in vitro IC50 (μM) HT29; Table 1; 72 h
Experimental: (§1) The compounds from the examples above were subjected to a standard cellular proliferation assay using human tumour cell lines obtained from the ATCC (American Type Culture Collection, 10801 University Boulevard, Manessas, Va. 20110-2209, USA). Standard 72-h MTT (thiazolyl blue; 3-[4,5-dimethylthiazol-2-yl]-2,5-diphenyltetrazolium bromide) assays were performed (Haselsberger, K.; Peterson, D. C.; Thomas, D. G.; Darling, J. L. Anti Cancer Drugs 1996, 7, 331-8; Loveland, B. E.; Johns, T. G.; Mackay, I. R.; Vaillant, F.; Wang, Z. X.; Hertzog, P. J. Biochemistry International 1992, 27, 501-10). In short: cells were seeded into 96-well plates according to doubling time and incubated overnight at 37° C. Test compounds were made up in DMSO and a 1/3 dilution series prepared in 100 μL cell media, added to cells (in triplicates) and incubated for 72 ho at 37° C. MTT was made up as a stock of 5 mg/mL in cell media and filter-sterilised. Media was removed from cells followed by a wash with 200 μL PBS. MTT solution was then added at 20 μL per well and incubated in the dark at 37° C. for 4 h. MTT solution was removed and cells again washed with 200 μL PBS. MTT dye was solubilised with 200 μL per well of DMSO with agitation.

Saos-2 = assay: 72-h MTT cytotoxicity assay, Saos-2; type: cell-based; conditions: Homo sapiens, SAOS-2, read-out: 72-h MTT in vitro IC50 (μM) Saos-2; Table 1; 72 h
Experimental: as §1

CDK2/cyclin E = molecular target: T1, CDK2/cyclin E (Homo sapiens, UniProt P24941); assay: Kinase assay CDK2/cyclin E; type: biochemical; conditions: Table 1; read-out: Kinase inhibition, IC50 (μM) CDK2/E
T1 construct: His6

CDK4/cyclin D1 = CDK4/cyclin D1 (Homo sapiens, UniProt P11802); assay: Kinase assay CDK4/cyclin D1;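 further: Enzyme: His6-tagged recombinant human CDK4 produced in baculovirus-infected Sf9 insect cells and purified by metal-chelate chromatography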
CDK4/cyclin D1, sequence (P11802 whole entry): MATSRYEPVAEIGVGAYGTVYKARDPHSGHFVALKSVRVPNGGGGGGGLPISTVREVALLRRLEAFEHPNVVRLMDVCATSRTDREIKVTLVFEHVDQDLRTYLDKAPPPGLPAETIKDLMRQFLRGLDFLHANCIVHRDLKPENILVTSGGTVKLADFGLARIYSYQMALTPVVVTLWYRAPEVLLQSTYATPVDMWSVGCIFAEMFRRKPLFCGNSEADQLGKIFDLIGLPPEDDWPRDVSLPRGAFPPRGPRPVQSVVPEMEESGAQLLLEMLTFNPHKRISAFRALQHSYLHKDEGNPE
CDK4/cyclin D1, sequence (P24385 whole entry partner): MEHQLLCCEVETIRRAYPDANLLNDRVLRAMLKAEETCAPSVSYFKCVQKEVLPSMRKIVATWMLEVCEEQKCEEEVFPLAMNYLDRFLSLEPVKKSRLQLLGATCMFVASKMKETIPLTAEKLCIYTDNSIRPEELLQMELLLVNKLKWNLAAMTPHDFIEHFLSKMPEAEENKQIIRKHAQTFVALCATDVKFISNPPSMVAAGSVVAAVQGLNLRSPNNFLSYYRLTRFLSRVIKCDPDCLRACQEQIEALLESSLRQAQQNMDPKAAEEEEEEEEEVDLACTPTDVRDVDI

[1] = Homo sapiens, A549, read-out: 72-h MTT in vitro IC50 (μM) A549
[2] = read-out: Kinase inhibition, IC50 (μM) CDK4/D1, Table 1

Structure (SMILES) | IC50 (A549; read-out: 72-h MTT in vitro IC50 (μM) A549) | IC50 (HT29) | IC50 (Saos-2) | IC50 (A549; [1]) | IC50 (CDK2/cyclin E) | IC50 (CDK4/cyclin D1) | IC50 (CDK4/cyclin D1; [2]) | IC50 (CDK4/cyclin D1; Kinase inhibition, IC50 (μM) CDK4/D1, Table 1)
Cc1nc(N)sc1-c1ccnc(Nc2cccc([N+](=O)[O-])c2)n1 [Compound 1, [4-(2-Amino-4-methyl-thiazol-5-yl)-pyrimidin-2-yl]-(3-nitro-phenyl)-amine] | 0.22 µM | 0.34 µM | 0.42 µM |  |  |  |  | 
Cc1nc(N)sc1-c1ccnc(Nc2ccc(N(C)C)cc2)n1 [Compound 2, N-[4-(2-Amino-4-methyl-thiazol-5-yl)-pyrimidin-2-yl]-N^1,N^1-dimethyl-benzene-1,4-diamine] |  | 2.88 µM | 1.54 µM | 2.37 µM |  |  |  | 
Cc1nc(N)sc1-c1ccnc(Nc2ccc(Cl)cc2)n1 [Compound 3, [4-(2-Amino-4-methyl-thiazol-5-yl)-pyrimidin-2-yl]-(4-chloro-phenyl)-amine] |  | 4.01 µM | 2.61 µM | 2.94 µM | 0.43 µM | 0.46 µM |  | 
Cc1nc(N)sc1-c1ccnc(Nc2ccc(C(F)(F)F)cc2)n1 [Compound 7, [4-(2-Amino-4-methyl-thiazol-5-yl)-pyrimidin-2-yl]-(4-trifluoromethyl-phenyl)-amine] |  | 1.26 µM | 0.65 µM | 1.03 µM |  |  | 5.83 µM | 
COc1ccc(Nc2nccc(-c3sc(N)nc3C)n2)cc1 [Compound 8, [4-(2-Amino-4-methyl-thiazol-5-yl)-pyrimidin-2-yl]-(4-methoxy-phenyl)-amine] |  | 2.71 µM | 1.32 µM | 1.55 µM | 0.34 µM | 0.42 µM |  | 
Cc1nc(N)sc1-c1ccnc(Nc2cccc(Cl)c2)n1 [Compound 9, [4-(2-Amino-4-methyl-thiazol-5-yl)-pyrimidin-2-yl]-(3-chloro-phenyl)-amine] |  | 0.79 µM | 0.43 µM | 0.55 µM | 0.02 µM |  | 0.07 µM | 
Cc1nc(N)sc1-c1ccnc(Nc2cccc(O)c2)n1 [Compound 13, 3-[4-(2-Amino-4-methyl-thiazol-5-yl)-pyrimidin-2-ylamino]-phenol] |  | 2.87 µM | 0.52 µM | 0.95 µM | 0.04 µM | 0.45 µM |  | 
Cc1nc(N)sc1-c1ccnc(Nc2ccc(I)c([N+](=O)[O-])c2)n1 [Compound 14, [4-(2-Amino-4-methyl-thiazol-5-yl)-pyrimidin-2-yl]-(4-iodo-3-nitro-phenyl)-amine] |  | 0.28 µM | 0.31 µM | 0.29 µM | 0.2 µM | 0.64 µM |  | 
Cc1nc(C)c(-c2ccnc(Nc3ccc(CCO)cc3)n2)s1 [Compound 21, 2-{4-[4-(2,4-Dimethyl-thiazol-5-yl)-pyrimidin-2-ylamino]-phenyl}-ethanol] |  | 3.61 µM | 4.37 µM | 2.79 µM |  |  | 3.28 µM | 
COc1ccc(Nc2nccc(-c3sc(C)nc3C)n2)cc1OC [Compound 23, (3,4-Dimethoxy-phenyl)-[4-(2,4-dimethyl-thiazol-5-yl)-pyrimidin-2-yl]-amine] |  | 1.17 µM | 2.02 µM | 1.57 µM | 0.03 µM |  | 1.06 µM | 
COc1ccc(Nc2nccc(-c3sc(C)nc3C)n2)cc1O [Compound 24, 5-[4-(2,4-Dimethyl-thiazol-5-yl)-pyrimidin-2-ylamino]-2-methoxy-phenol] |  | 5.47 µM | 0.16 µM | 0.44 µM |  |  | 1.68 µM | 
COc1ccc(Nc2nccc(-c3sc(C)nc3C)n2)cc1N(C)C [Compound 28, N^1-[4-(2,4-Dimethyl-thiazol-5-yl)-pyrimidin-2-yl]-4-methoxy-N^3,N^3-dimethyl-benzene-1,3-diamine] |  | 2.23 µM | 1.59 µM | 2.07 µM | 0.56 µM | 2.88 µM |  | 
CNc1nc(C)c(-c2ccnc(Nc3ccc(N(C)C)cc3)n2)s1 [Compound 29, N,N-Dimethyl-N′-[4-(4-methyl-2-methylamino-thiazol-5-yl)-pyrimidin-2-yl]-benzene-1,4-diamine] |  | 0.6 µM | 0.8 µM | 0.4 µM | 0.32 µM | 0.99 µM |  | 
CNc1nc(C)c(-c2ccnc(Nc3ccc(I)c([N+](=O)[O-])c3)n2)s1 [Compound 30, (4-Iodo-3-nitro-phenyl)-[4-(4-methyl-2-methylamino-thiazol-5-yl)-pyrimidin-2-yl]-amine] |  | 1.07 µM | 2.31 µM | 0.94 µM | 0.12 µM | 0.25 µM |  | 
Cc1c(-c2ccnc(Nc3ccc(O)cc3)n2)sc(=O)n1C [Compound 31, 5-[2-(4-Hydroxy-phenylamino)-pyrimidin-4-yl]-3,4-dimethyl-3H-thiazol-2-one] |  | 0.87 µM | 0.4 µM | 0.29 µM |  |  |  | 
Cc1c(-c2ccnc(Nc3cccc([N+](=O)[O-])c3)n2)sc(=O)n1C [Compound 32, 3,4-Dimethyl-5-[2-(3-nitro-phenylamino)-pyrimidin-4-yl]-3H-thiazol-2-one] |  | 0.01 µM | 0.1 µM | 0.01 µM |  |  |  | 
Cc1c(-c2ccnc(Nc3ccc(F)cc3)n2)sc(=O)n1C [Compound 34, 5-[2-(4-Fluoro-phenylamino)-pyrimidin-4-yl]-3,4-dimethyl-3H-thiazol-2-one] |  | 0.38 µM | 1.27 µM | 0.51 µM |  |  |  | 
Cc1c(-c2ccnc(Nc3ccc(Cl)cc3)n2)sc(=O)n1C [Compound 35, 5-[2-(4-Chloro-phenylamino)-pyrimidin-4-yl]-3,4-dimethyl-3H-thiazol-2-one] |  | 0.4 µM | 2.78 µM | 0.89 µM | 0.11 µM | 1.09 µM |  | 
Cc1cc(Nc2nccc(-c3sc(=O)n(C)c3C)n2)ccc1Cl [Compound 39, 5-[2-(4-Chloro-3-methyl-phenylamino)-pyrimidin-4-yl]-3,4-dimethyl-3H-thiazol-2-one] |  |  |  |  | 1.18 µM |  | 17.9 µM | 
Cc1cc(Nc2nccc(-c3sc(=O)n(C)c3C)n2)ccc1F [Compound 41, 5-[2-(4-Fluoro-3-methyl-phenylamino)-pyrimidin-4-yl]-3,4-dimethyl-3H-thiazol-2-one] |  | 2.19 µM | 7.98 µM | 2.41 µM |  |  |  | 
Cc1ccc(Nc2nccc(-c3sc(=O)n(C)c3C)n2)cc1[N+](=O)[O-] [Compound 42, 3,4-Dimethyl-5-[2-(4-methyl-3-nitro-phenylamino)-pyrimidin-4-yl]-3H-thiazol-2-one] |  | 0.004 µM | 0.005 µM | 0.003 µM |  |  |  | 
Cc1c(-c2ccnc(Nc3ccc(N(C)C)cc3)n2)sc(=O)n1C [Compound 43, 5-[2-(4-Dimethylamino-phenylamino)-pyrimidin-4-yl]-3,4-dimethyl-3H-thiazol-2-one] |  | 1.69 µM | 3.36 µM | 2.2 µM |  | 3.82 µM |  | 
Cc1nc(N(C)C)sc1-c1ccnc(Nc2cccc([N+](=O)[O-])c2)n1 [Compound 52, [4-(2-Dimethylamino-4-methyl-thiazol-5-yl)-pyrimidin-2-yl]-(3-nitro-phenyl)-amine] |  | 3.41 µM | 2.57 µM | 2.47 µM |  |  |  | 10 µM
Cc1nc(NCCO)sc1-c1ccnc(Nc2ccc(F)cc2)n1 [Compound 59, 2-{5-[2-(4-Fluoro-phenylamino)-pyrimidin-4-yl]-4-methyl-thiazol-2-ylamino}-ethanol] |  |  |  |  | 0.08 µM | 15 µM |  | 
